Columns and labels:
[1] = tested on: methanol-intoxicated rats; assay: Retinal histopathology by light and electron microscopy; conditions: rat, in vivo
Excerpt: (§1) Methanol-intoxication Protocol.
(§2) Light-Emitting Diode Treatment.
Histopathologic Analysis.

[2] = tested on: methanol-intoxicated rats; assay: Rod and M-cone (15 Hz/510 nm) ERG after 72 hours of methanol intoxication; assay type: in vivo, rat
Description: as §1, §2
ERG Procedures and Analyses.
All sensitivity measures were made in triplicate.
15 Hz/510 nm ERG Response. ERGs were recorded in response to a 15-Hz flickering light at a wavelength of 510 nm over a 3-log unit range of light intensity.

[3] = tested on: methanol-intoxicated rats
Description: Animals were randomly assigned to one of four treatment groups: (1) Untreated control, (2) LED-treated control, (3) methanol-intoxicated and (4) LED-treated methanol-intoxicated rats. Rats were placed in a thermostatically controlled plexiglass chamber (22×55×22 cm; maintained at 22-23° C.) and exposed to a mixture of N2O/O2 (1:1; flow rate 2 liters/min) for the duration of the experiment. […] In the present studies, methanol (25% w/v methanol in saline) was administered (i.p.) to N2O/O2 treated rats at an initial dose of dose 4 g/kg, followed by supplemental doses of 1.5 g/kg at 24 and 48 hours.
Light-Emitting Diode Treatment. […] Rats were placed in a plexiglass restraint device (12.7×9×7.6 cm). The LED array was positioned directly over the animal at a distance of 1 inch, exposing the entire body. Treatment consisted of irradiation at 670 nm for 2 minutes and 24 seconds resulting in a power intensity of 28 mW/cm^2 and an energy density of 4 joules/cm^2 at 5, 25 and 50 hours after the initial dose of methanol.
ERG Procedures and Analyses. ERG experiments were performed as previously described (M. T. Seme, et al., supra, 1999; M. T. Seme, et al., supra, 2001). The light stimulation apparatus consisted of a three-beam optical system. All three beams were derived from tungsten-halide lamps (50 W, 12 V). Beam intensity was controlled by using neutral density step filters. ERG recordings were differentially amplified and computer-averaged. The amplified signal was processed through a two-stage active narrow bandpass filter (the half voltage of this filter was 0.2 times the center frequency). […] The averaged responses were measured (peak-to-trough amplitude) from a calibrated digital oscilloscope display.
Before ERG analysis, ophthalmoscopic examination confirmed that all eyes were free of lenticular opacities or other gross anomalies. […] The stimulus intensity yielding a 5-μV criterion response was determined by extrapolating between the two intensity points that bracketed the 5-μV response for each animal.

Structure (SMILES): CO [methanol, Methanol]
- outer retinal histopathology [1]: Pronounced histopathologic changes
- increase of 5 μV threshold light intensity relative to control, 15-Hz/510-nm ERG [2]: 0.6 log units
- maximal 15-Hz/510-nm ERG amplitude ([2]; 72 hours, no LED): 18±5 μV
- maximal rod and M-cone ERG amplitude as % of the maximum control response ([2]; 72 hours, no LED): approximately 28%
- light intensity required to elicit a threshold (5 μV) 15-Hz/510-nm ERG response ([2]; controls −3.0±0.1 LRRI): −2.4±0.1 LRRI
- increase of light intensity required for a 5-μV UV-cone response [3]: 0.5 log units
- maximal UV-cone ERG response amplitude ([3]; 72 hours, no LED): 18±6 μV
- maximal UV-cone ERG amplitude as % of the maximum control response ([3]; no LED): 30%

Source: patent publication US7744590B2, “Red to near-infrared photobiomodulation treatment of the visual system in visual system disease or injury” (Medical College of Wisconsin Research Foundation, Inc., priority 2003, dated 2010)
